1 compound from patent US12590100B2, “Tetrahydro-spiroindoline-pyrrolopyrrole-triones inhibitors of the NRF2-β-TrCP interaction for use in the treatment of fatty liver disease” (Universidad Autonoma De Madrid, priority 2021, dated 2026) can be followed below.

The subject of one series is NRF2. Kind of series: NRF2 and HO-1 protein levels in MEFs (immunoblot). The series is classed as cell-based, mouse. As to the method: FIG. 4. […] MEFs in serum-depleted conditions were subjected to (A-C) 1 μM, 3 μM, or 10 μM of PHAR and 10 μM of SFN as a positive control for 16 h; or (D-F) 10 μM of PHAR for the indicated times. In both experiments, 0.1% DMSO was used as a vehicle. A), representative immunoblots of NRF2, HO1, KEAP1, LAMINB, and GAPDH as loading controls. B) and C), densitometric analysis of NRF2 and HO1 protein levels of the representative immunoblots depicted in (A), expressed as a ratio of NRF2/LAMINB or HO1/GAPDH. The data is depicted as means±SEM (n=3). Statistical analysis was performed with one-way ANOVA followed by the Bonferroni test to check inter-group differences. *p<0.05; ***p<0.001 vs. 0. D), representative immunoblots of NRF2, HO1, KEAP1, LAMINB, and GAPDH as loading controls. E) and F), Densitometric analysis of NRF2 and HO1 protein levels of the representative immunoblots of (D), expressed as a ratio of NRF2/LAMINB or HO1/GAPDH. The data is depicted as means±SEM (n=3). Statistical analysis was performed with one-way ANOVA followed by the Bonferroni test to check inter-group differences. *p<0.05; ***p<0.001 vs. 0. G), Reporter MCF-7 c32 ARE-luc cells were subjected to 1 μM, 3 μM, or 9 μM of PHAR and 10 μM of SFN as a positive control. 0.1% DMSO was used as a vehicle. Luciferase activity was measured after 16 h of treatment. The data is depicted as means±SEM (n=3). Statistical analysis was performed with one-way ANOVA followed by the Bonferroni test to check inter-group differences. **p<0.01; ***p<0.001 vs. 0. H), MTT assay to evaluate cell viability/toxicity after treatments. I), Serum-deprived MEFs were subjected to 10 μM of PHAR. The mRNA levels of Hmox1, Nqo1, Aox1, Glc, and Gclm after 8 h of treatment were determined by means of pRT-PCR and normalized by means of average LaminB, Gapdh, and β-actin. The data is depicted as means±SEM (n=3). Statistical analysis was performed with the Student's T test. *p<0.05; **p<0.01 ***p<0.001 vs. 0.
In order to empirically determine if PHAR activates NRF2, mouse embryo fibroblasts (MEFs) were treated with several doses of the compound (1 μM, 3 μM, and […]) for 16 h and with 10 μM of sulforaphane (SFN), one of main electrophilic activators of NRF2, used as a positive control.
Moreover, a time course of NRF2 activation with PHAR (10 μM for 2, 4, and 8 h) or with SFN (10 μM, 8 h) was done as a positive control.
(In western blotting, separated proteins are transferred to a membrane and probed.)

A short description of series [1]: HPLC-MS detection of PHAR in liver after IP injection. The series is classed as in vivo, mouse. Conditions: mice, single IP 50 mg/kg, 120 min. As to the method:
FIG. 9. PHAR activates NRF2 and HO-1 in liver. A), UV and MS spectrum derived from the HPLC-MS analysis of PHAR dissolved in methanol for the identification of peaks associated with the compound. A blue rectangle surrounds the mass associated with PHAR. (B-D), the mice were treated with the vehicle (Tween-80+PBS, 1:13), 50 mg/kg of PHAR, or 50 mg/kg of SFN (saline) as a positive control by means of intraperitoneal (IP) injection for 2 hours. B), HPLC-MS UV and MS spectra derived from representative liver samples of both experimental groups used for determining PHAR levels in the liver 120 min after a single IP injection of 50 mg/kg. A blue rectangle surrounds the mass associated with PHAR. C), representative immunoblots showing NRF2, HO1, and LAMINB protein levels as the liver extract loading control. D), densitometric analysis of NRF2 protein levels of the representative immunoblots shown in (C), expressed as a ratio of NRF2/LAMINB. Statistical analysis was performed with one-way ANOVA followed by the Bonferroni test to compare inter-group differences. ***p<0.001 vs. vehicle. […] F), densitometric analysis of NRF2 and HO1 protein levels in the liver tissue of the representative immunoblots shown in (E), expressed as a ratio of NRF2/LAMINB or HO1/LAMINB levels. […]
Once the mechanism of action of PHAR was deciphered, the capacity thereof to induce NRF2 levels in a murine model was evaluated. […]

SMILES strings stand for the structures.

Regarding `O=C1[C@@H]2[C@H](Cc3c[nH]c4ccccc34)N[C@]3(C(=O)Nc4ccc(Cl)cc43)[C@@H]2C(=O)N1c1ccc2c(c1)OCCO2` [PHAR], the HO-1 levels entry with NRF2 (16 h, PHAR 1, 3, 9 μM) is given as “increase, mainly with the dose of 9 μM”. The NRF2 accumulation result in the series on NRF2 (16 h, PHAR 1, 3, 9 μM, SFN 10 μM) is listed as “induced NRF2 accumulation, although to a slightly lesser extent than the accumulation induced by SFN”. In addition, the “NRF2 accumulation, time course” value with NRF2 (PHAR 10 μM for 2, 4, 8 h, SFN 10 μM, 8 h) was “induced NRF2 accumulation 2 h after treatment”. Also, in the series on NRF2 (PHAR 10 μM, 8 h), the “HO-1 levels, time course” value is on record as “increase in HO-1 levels after 8 h”. Also, in series [1], the “presence of PHAR in liver tissue (HPLC-MS)” value is “corresponded with the presence of the compound”.
